Experimental data from US20260078103A1, “ISOQUINOLONES AS PI3K INHIBITORS” (OnKure, Inc., priority 2022, published 2026).
Where two headings read alike, the source gives them in different places.

Columns and labels:
Type in all cases: cell-based
[1] = system: SKBR3 cells express WT PI3Ka; assay: In vitro cell proliferation, SKBR3 cells (CellTiter-Glo); conditions: inhibition of proliferation
Outline: (§1)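 T47D (PI3Kα H1047R; RPMI, 10% FBS, insulin 0.2 units/mL) or SKBR3 (WT PI3Kα; McCoys 5a, 10% FBS) cells seeded at 1,500 cells/well on 10-point compound dilutions, grown 72 h at 37 °C. CellTiter-Glo luminescence; inhibition normalised to 0.1% DMSO and 10 uM alpelisib, EC50 from four-parameter fit.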

[2] = system: T47D cells expressing mutant PI3Ka (H1047R); assay: In vitro cell proliferation, T47D cells (CellTiter-Glo); conditions: inhibition of proliferation, read-out: Avg T-47D EC50
Outline: as §1

[3] = system: phosphorylation of AKT (pAKT) in T47D cells expressing mutant PI3Ka (H1047R); assay: In vitro cell pAKT (Ser473) HTRF, T47D cells; conditions: cellular pAKT, T47D cells, mutant PI3Ka (H1047R), 6 hours, read-out: Avg T-47D IC50
Outline: (§2)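 pAKT (Ser473) was quantified by HTRF in lysates from cells exposed 6 h at 37 °C to 10-point compound series, with T47D in insulin-supplemented RPMI/10% FBS and SKBR3 in McCoy's 5a/10% FBS. Controls: 0.1% DMSO (high) and 10 uM alpelisib (low). IC50 from sigmoidal curve fitting.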

[4] = system: phosphorylation of AKT (pAKT) in SKBR3 cells express WT PI3Ka; assay: In vitro cell pAKT (Ser473) HTRF, SKBR3 cells; conditions: cellular pAKT
Outline: as §2

Row | SMILES | EC50 ([1]; Homo sapiens, SK-BR-3, 72 h) [nM] | EC50 ([2]; Homo sapiens, T47D, 72 h) [nM] | IC50 ([3]; Homo sapiens, T47D, 6 h) [nM] | IC50 ([4]; Homo sapiens, SK-BR-3, 6 h) [nM] | EC50 ([1]; 72 hours) [nM] | EC50 ([2]; 72 hours) [nM] | IC50 [3] [nM] | IC50 ([4]; 6 hours) [nM]
1 | Cc1cc([C@@H](C)Nc2cccc(F)c2C(=O)O)c2cc(N3CCN(C)[C@@H](C(F)(F)F)C3)n(C)c(=O)c2c1 [Example 410] | > 15000 | 1 to 500 | 1 to 500 | > 15000 |  |  |  | 
2 | Cc1cc([C@@H](C)Nc2cccc(F)c2C(=O)O)c2cc(N3CCN(C)[C@H](C(F)(F)F)C3)n(C)c(=O)c2c1 [Example 411] | > 15000 | 1 to 500 | 1 to 500 | > 15000 |  |  |  | 
3 | C[C@@H](Nc1cccc(F)c1C(=O)O)c1cc(F)cc2c(=O)n(C)c(N3CC(F)(F)C3)cc12 [Example 412] | > 15000 | 2000 to 15000 | 500 to 2000 | > 15000 |  |  |  | 
4 | C[C@@H](Nc1cccc(F)c1C(=O)O)c1cc(F)cc2c(=O)n(C)c(N3CC(C(F)(F)F)C3)cc12 [Example 413] |  |  |  |  | > 15000 | 2000 to 15000 | 2000 to 15000 | > 15000
5 | C[C@@H](Nc1cccc(F)c1C(=O)O)c1cc(F)cc2c(=O)n(C)c(N3CCC(F)(F)C3)cc12 [Example 414] |  |  |  |  | > 15000 | 1 to 500 | 1 to 500 | > 15000
6 | C[C@@H](Nc1cccc(F)c1C(=O)O)c1cc(F)cc2c(=O)n(C)c(N3CC[C@@H](C(F)(F)F)C3)cc12 [Example 415] | > 15000 | 500 to 2000 | 1 to 500 | > 15000 |  |  |  | 
7 | C[C@@H](Nc1cccc(F)c1C(=O)O)c1cc(F)cc2c(=O)n(C)c(N3CC[C@H](C(F)(F)F)C3)cc12 [Example 416] | > 15000 | 500 to 2000 | 500 to 2000 | > 15000 |  |  |  | 
8 | Cc1cnc(N2CCN(c3cc4c([C@@H](C)Nc5cccc(F)c5C(=O)O)cc(F)cc4c(=O)n3C)CC2)s1 [Example 417] | > 15000 | 1 to 500 | 1 to 500 | > 15000 |  |  |  | 
9 | Cc1cc([C@@H](C)Nc2ccccc2C(=O)O)c2cc(N3CCn4c(C)nnc4C3)n(C)c(=O)c2c1 [Example 418] | > 15000 | > 15000 | > 15000 | > 15000 |  |  |  | 
10 | Cc1cc([C@@H](C)Nc2ccccc2C(=O)O)c2cc(N3CCn4ncnc4C3)n(C)c(=O)c2c1 [Example 419] | > 15000 | 500 to 2000 | 500 to 2000 | > 15000 |  |  |  | 
11 | Cc1cc([C@@H](C)Nc2ccccc2C(=O)O)c2cc(-c3cnc(CC(F)(F)F)cn3)n(C)c(=O)c2c1 [Example 422] | > 15000 | 1 to 500 | 1 to 500 | > 15000 |  |  |  | 
12 | C[C@@H](Nc1cccc(F)c1C(=O)O)c1cc(F)cc2c(=O)n(C)c(N3CCN(c4cnn(C(C)(C)C#N)c4)CC3)cc12 [Example 424] | > 15000 | 1 to 500 | 1 to 500 | 2000 to 15000 |  |  |  | 
13 | C[C@@H](Nc1cccc(F)c1C(=O)O)c1cc(F)cc2c(=O)n(C)c(N3CCN(c4nccs4)CC3)cc12 [Example 429] | > 15000 | 1 to 500 | 1 to 500 | > 15000 |  |  |  | 
14 | Cc1cc([C@@H](C)Nc2ccccc2C(=O)O)c2cc(N3CCn4cc(C(F)(F)F)nc4C3)n(C)c(=O)c2c1 [Example 432] | > 15000 | 500 to 2000 | 1 to 500 | > 15000 |  |  |  | 
15 | Cc1cc([C@@H](C)Nc2ccccc2C(=O)O)c2cc(N3CCn4c(cnc4C(F)(F)F)C3)n(C)c(=O)c2c1 [Example 433] |  |  |  |  | > 15000 | 500 to 2000 | 1 to 500 | > 15000
16 | Cc1cc([C@@H](C)Nc2ccccc2C(=O)O)c2cc(N3CCn4cc(C)nc4C3)n(C)c(=O)c2c1 [Example 434] | > 15000 | 1 to 500 | 1 to 500 | > 15000 |  |  |  | 
17 | Cc1cc([C@@H](C)Nc2ccccc2C(=O)O)c2cc(N3CCn4c(nnc4C(F)(F)F)C3)n(C)c(=O)c2c1 [Example 435] |  |  |  |  | > 15000 | 2000 to 15000 | 2000 to 15000 | > 15000
18 | Cc1cc([C@@H](C)Nc2ccccc2C(=O)O)c2cc(N3CCn4nncc4C3)n(C)c(=O)c2c1 [Example 436] | > 15000 | 2000 to 15000 | 2000 to 15000 | > 15000 |  |  |  | 
19 | Cc1cc([C@@H](C)Nc2cccc(F)c2C(=O)O)c2cc(N3CCn4c(cnc4C)C3)n(C)c(=O)c2c1 [Example 438] |  |  |  |  | > 15000 | > 15000 | > 15000 | > 15000
20 | Cc1cc([C@@H](C)Nc2cccc(F)c2C(=O)O)c2cc(N3CCc4c(cnn4C)C3)n(C)c(=O)c2c1 [Example 439] |  |  |  |  | > 15000 | 500 to 2000 | 500 to 2000 | > 15000

Row | SMILES | EC50 ([1]; Homo sapiens, SK-BR-3, 72 h) [nM] | EC50 ([2]; Homo sapiens, T47D, 72 h) [nM] | IC50 ([3]; Homo sapiens, T47D, 6 h) [nM] | IC50 ([4]; Homo sapiens, SK-BR-3, 6 h) [nM] | EC50 ([1]; 72 hours) [nM] | EC50 ([2]; 72 hours) [nM] | IC50 [3] [nM] | IC50 ([4]; 6 hours) [nM]
21 | Cc1ncc(F)cc1-c1ncc(-c2cc3c([C@@H](C)Nc4cccc(F)c4C(=O)O)cc(F)cc3c(=O)n2C)cc1F [Example 440] | > 15000 | 1 to 500 | 1 to 500 | 2000 to 15000 |  |  |  | 
22 | C[C@@H](Nc1cccc(F)c1C(=O)O)c1cc(F)cc2c(=O)n(C)c(-c3ccc(OCC(F)(F)F)nc3)cc12 [Example 441] |  |  |  |  | > 15000 | 500 to 2000 | 1 to 500 | > 15000
23 | Cc1cc([C@@H](C)Nc2ccccc2C(=O)O)c2cc(N3CCn4c(nnc4C4CC4)C3)n(C)c(=O)c2c1 [Example 445] | > 15000 | 2000 to 15000 | 2000 to 15000 | > 15000 |  |  |  | 
24 | Cc1cc([C@@H](C)Nc2ccccc2C(=O)O)c2cc(N3CCn4nc(C)cc4C3)n(C)c(=O)c2c1 [Example 446] | > 15000 | 1 to 500 | 1 to 500 | > 15000 |  |  |  | 
25 | CC(Nc1ccccc1C(=O)O)c1cc(F)cc2c(=O)n(C)c(-c3ccc(OC4CC(F)C4)nc3)cc12 (stereo not shown) [Example 447] |  |  |  |  | > 15000 | 1 to 500 | 1 to 500 | > 15000
26 | CC(Nc1ccccc1C(=O)O)c1cc(F)cc2c(=O)n(C)c(-c3ccc(OC4CC(F)C4)nc3)cc12 (stereo not shown) [Example 448] |  |  |  |  | > 15000 | 1 to 500 | 1 to 500 | > 15000
27 | Cc1csc(N2CCN(c3cc4c([C@@H](C)Nc5ccccc5C(=O)O)cc(F)cc4c(=O)n3C)CC2)n1 [Example 453] | 2000 to 15000 | 1 to 500 | 1 to 500 | > 15000 |  |  |  | 
28 | C[C@@H](Nc1cccc(F)c1C(=O)O)c1cc(F)cc2c(=O)n(C)c(C3CC3)cc12 [Example 454] | > 15000 | 1 to 500 | 1 to 500 | > 15000 |  |  |  | 
29 | C[C@@H](Nc1ccccc1C(=O)O)c1cc(F)cc2c(=O)n(C)c(C3CC3)cc12 [Example 455] | > 15000 | 1 to 500 | 1 to 500 | > 15000 |  |  |  | 
30 | Cc1ccc(N2CCN(c3cc4c([C@@H](C)Nc5cccc(F)c5C(=O)O)cc(F)cc4c(=O)n3C)CC2)c(C)n1 [Example 456] | 2000 to 15000 | 1 to 500 | 1 to 500 | 2000 to 15000 |  |  |  | 
31 | CC(Nc1cccc(F)c1C(=O)O)c1cc(F)cc2c(=O)n(C)c(-c3ccc(OCC(F)F)nc3)cc12 (stereo not shown) [Example 457] |  |  |  |  | > 15000 | 1 to 500 | 1 to 500 | > 15000
32 | C[C@@H](Nc1ccccc1C(=O)O)c1cc(F)cc2c(=O)n(C)c(-c3cnc(OC4CC4)c(F)c3)cc12 [Example 458] | > 15000 | 1 to 500 | 1 to 500 | > 15000 |  |  |  | 
33 | Cc1ncc(-c2ncc(-c3cc4c(C(C)Nc5ccccc5C(=O)O)cc(F)cc4c(=O)n3C)cc2F)cc1F (stereo not shown) [Example 459] |  |  |  |  | 2000 to 15000 | 1 to 500 | 1 to 500 | 2000 to 15000
34 | Cc1ccc(N2CCN(c3cc4c(C(C)Nc5ccccc5C(=O)O)cc(F)cc4c(=O)n3C)CC2)c(C)n1 (stereo not shown) [Example 460] |  |  |  |  | 500 to 2000 | 1 to 500 | 1 to 500 | 500 to 2000
35 | CC(Nc1ccccc1C(=O)O)c1cc(F)cc2c(=O)n(C)c(-c3ccc(OCC(F)F)nc3)cc12 (stereo not shown) [Example 462] |  |  |  |  | > 15000 | 1 to 500 | 1 to 500 | > 15000
36 | C[C@@H](Nc1ccccc1C(=O)O)c1cc(F)cc2c(=O)n(C)c(N3C4CCC3CN(CC(F)(F)F)C4)cc12 [Example 464] | 2000 to 15000 | 1 to 500 | 1 to 500 | 2000 to 15000 |  |  |  | 
37 | Cc1ncncc1N1CCN(c2cc3c([C@@H](C)Nc4ccccc4C(=O)O)cc(F)cc3c(=O)n2C)CC1 [Example 465] | 2000 to 15000 | 1 to 500 | 1 to 500 | 2000 to 15000 |  |  |  | 
38 | C[C@@H](Nc1ccccc1C(=O)O)c1cc(F)cc2c(=O)n(C)c(N3CCN(c4nccs4)CC3)cc12 [Example 466] | > 15000 | 1 to 500 | 1 to 500 | 2000 to 15000 |  |  |  | 
39 | Cc1cnc(N2CCN(c3cc4c([C@@H](C)Nc5ccccc5C(=O)O)cc(F)cc4c(=O)n3C)CC2)s1 [Example 467] | 2000 to 15000 | 1 to 500 | 1 to 500 | 2000 to 15000 |  |  |  | 
40 | Cc1nc(C)c(-c2ncc(-c3cc4c(C(C)Nc5ccccc5C(=O)O)cc(F)cc4c(=O)n3C)cc2F)cc1F (stereo not shown) [Example 471] |  |  |  |  | 2000 to 15000 | 1 to 500 | 1 to 500 | 2000 to 15000
